Test results published in patent US20220009920A1 (GB005, Inc., priority 2020, published 2022).

Key:
Experiment in all cases: Large panel kinase profiling
Format in all cases: biochemical
Conditions in all cases: 1 μM test article, 1 mM ATP
[1] = biological target: T1, GAK (Homo sapiens, UniProt O14976)
T1 construct: AssayQuant Technologies, Inc. (service provider)
T1 sequence (O14976 1-1311): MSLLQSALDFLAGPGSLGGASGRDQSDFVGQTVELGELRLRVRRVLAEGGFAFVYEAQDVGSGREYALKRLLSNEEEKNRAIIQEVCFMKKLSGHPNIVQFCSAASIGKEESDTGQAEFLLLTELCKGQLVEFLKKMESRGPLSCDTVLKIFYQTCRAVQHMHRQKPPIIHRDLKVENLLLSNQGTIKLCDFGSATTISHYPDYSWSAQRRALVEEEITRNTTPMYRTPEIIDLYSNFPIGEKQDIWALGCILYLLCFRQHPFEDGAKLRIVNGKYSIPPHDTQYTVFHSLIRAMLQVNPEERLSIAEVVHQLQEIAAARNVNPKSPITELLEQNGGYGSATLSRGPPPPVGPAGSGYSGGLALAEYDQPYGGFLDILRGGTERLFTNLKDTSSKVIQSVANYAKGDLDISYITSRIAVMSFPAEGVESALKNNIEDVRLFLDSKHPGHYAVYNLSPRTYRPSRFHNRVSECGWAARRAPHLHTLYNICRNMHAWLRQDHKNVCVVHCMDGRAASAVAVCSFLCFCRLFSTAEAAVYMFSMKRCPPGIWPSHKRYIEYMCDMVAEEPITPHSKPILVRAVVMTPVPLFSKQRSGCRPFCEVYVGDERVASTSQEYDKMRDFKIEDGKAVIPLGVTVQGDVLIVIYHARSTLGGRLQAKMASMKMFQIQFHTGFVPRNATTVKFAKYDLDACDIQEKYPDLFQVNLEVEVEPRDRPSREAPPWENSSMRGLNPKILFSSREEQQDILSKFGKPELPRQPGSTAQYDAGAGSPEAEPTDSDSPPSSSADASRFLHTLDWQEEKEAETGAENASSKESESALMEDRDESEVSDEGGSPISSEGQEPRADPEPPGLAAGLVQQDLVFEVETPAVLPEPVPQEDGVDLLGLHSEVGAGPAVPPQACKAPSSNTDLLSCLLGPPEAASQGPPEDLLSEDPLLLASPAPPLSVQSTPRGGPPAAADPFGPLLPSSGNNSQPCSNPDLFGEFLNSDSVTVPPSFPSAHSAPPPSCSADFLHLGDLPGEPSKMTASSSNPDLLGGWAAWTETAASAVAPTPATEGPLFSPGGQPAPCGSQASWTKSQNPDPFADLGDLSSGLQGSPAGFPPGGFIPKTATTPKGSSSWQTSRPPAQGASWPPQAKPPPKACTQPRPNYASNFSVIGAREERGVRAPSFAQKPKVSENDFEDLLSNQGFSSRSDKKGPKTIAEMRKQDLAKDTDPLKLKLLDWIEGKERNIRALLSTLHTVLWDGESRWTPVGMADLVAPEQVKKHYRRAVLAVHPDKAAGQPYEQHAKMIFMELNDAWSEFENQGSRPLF
Method in brief: (§1)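 Reactions contain 1 mM ATP and 1 μM test article; the CSox peptide sensor reports phosphorylation as fluorescence gain. Temperature is held at 30° C. while signal (360 nm excitation, 485 nm emission) is recorded every 1 min.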

[2] = biological target: T2, STK17A/DRAK1 (Homo sapiens, UniProt Q9UEE5)
T2 construct: AssayQuant Technologies, Inc. (contract assay)
T2 sequence (Q9UEE5 1-414): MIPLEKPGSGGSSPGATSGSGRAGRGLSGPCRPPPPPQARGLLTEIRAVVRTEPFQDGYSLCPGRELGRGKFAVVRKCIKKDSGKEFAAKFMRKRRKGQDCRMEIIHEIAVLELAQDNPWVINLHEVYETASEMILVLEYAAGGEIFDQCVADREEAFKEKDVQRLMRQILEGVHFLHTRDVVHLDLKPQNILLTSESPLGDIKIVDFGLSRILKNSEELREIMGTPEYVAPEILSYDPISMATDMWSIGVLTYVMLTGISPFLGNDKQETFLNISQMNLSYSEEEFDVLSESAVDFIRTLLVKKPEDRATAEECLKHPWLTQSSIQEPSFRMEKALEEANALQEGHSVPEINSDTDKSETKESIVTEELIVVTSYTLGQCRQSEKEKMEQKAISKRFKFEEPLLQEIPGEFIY
Method in brief: as §1

[3] = biological target: T3, RPS6KA6/RSK4 (Homo sapiens, UniProt Q9UK32)
T3 construct: AssayQuant Technologies, Inc. (contract assay)
T3 sequence (Q9UK32 whole entry): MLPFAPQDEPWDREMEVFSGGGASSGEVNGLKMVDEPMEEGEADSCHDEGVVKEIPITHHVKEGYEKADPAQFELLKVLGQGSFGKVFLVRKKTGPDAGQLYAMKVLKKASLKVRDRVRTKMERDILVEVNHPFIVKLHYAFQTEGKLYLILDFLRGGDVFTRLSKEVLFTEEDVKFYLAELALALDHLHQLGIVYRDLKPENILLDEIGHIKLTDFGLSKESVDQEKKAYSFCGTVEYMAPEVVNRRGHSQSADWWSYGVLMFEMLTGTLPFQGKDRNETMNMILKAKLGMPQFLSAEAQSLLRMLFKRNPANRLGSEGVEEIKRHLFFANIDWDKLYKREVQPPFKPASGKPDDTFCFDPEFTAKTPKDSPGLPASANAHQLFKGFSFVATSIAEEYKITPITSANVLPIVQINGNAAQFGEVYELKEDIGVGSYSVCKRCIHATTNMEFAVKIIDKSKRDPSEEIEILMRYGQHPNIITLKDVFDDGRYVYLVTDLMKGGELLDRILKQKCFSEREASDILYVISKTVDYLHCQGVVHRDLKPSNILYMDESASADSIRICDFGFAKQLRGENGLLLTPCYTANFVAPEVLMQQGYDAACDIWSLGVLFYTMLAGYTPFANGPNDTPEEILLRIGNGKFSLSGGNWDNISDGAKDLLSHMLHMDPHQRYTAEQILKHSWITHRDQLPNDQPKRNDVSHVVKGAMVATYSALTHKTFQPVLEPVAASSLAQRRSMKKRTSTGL
Method in brief: as §1

[4] = biological target: T4, AURKC/AURC (Homo sapiens, UniProt Q9UQB9)
T4 sequence (Q9UQB9 1-309): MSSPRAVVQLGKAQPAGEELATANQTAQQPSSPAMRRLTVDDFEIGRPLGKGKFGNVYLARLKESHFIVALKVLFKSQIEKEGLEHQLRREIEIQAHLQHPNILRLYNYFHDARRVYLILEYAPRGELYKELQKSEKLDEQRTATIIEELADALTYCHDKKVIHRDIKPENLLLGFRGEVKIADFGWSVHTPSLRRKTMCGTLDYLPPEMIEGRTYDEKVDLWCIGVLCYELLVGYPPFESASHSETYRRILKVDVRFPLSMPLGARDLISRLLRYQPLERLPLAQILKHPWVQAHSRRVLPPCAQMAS
Method in brief: as §1

[5] = biological target: T5, IRAK4 (Homo sapiens, UniProt Q9NWZ3)
T5 sequence (Q9NWZ3 1-460): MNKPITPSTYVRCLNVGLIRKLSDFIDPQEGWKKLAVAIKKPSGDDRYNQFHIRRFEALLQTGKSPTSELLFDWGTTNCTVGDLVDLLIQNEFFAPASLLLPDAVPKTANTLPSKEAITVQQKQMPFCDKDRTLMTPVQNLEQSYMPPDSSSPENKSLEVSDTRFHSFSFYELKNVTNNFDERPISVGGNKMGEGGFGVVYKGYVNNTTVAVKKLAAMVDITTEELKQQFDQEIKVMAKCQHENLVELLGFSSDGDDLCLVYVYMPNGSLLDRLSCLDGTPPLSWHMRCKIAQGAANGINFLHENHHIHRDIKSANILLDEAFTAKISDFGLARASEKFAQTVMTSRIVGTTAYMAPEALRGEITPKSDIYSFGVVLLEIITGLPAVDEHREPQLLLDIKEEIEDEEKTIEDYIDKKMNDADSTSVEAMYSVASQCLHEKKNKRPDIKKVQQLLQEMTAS
Method in brief: as §1

For `C=CC(=O)N1CCCC(c2c(F)cc(C(N)=O)c3[nH]c4c(c23)CCCCC4)C1` (single isomer, unassigned) [Compound 5-6], which inhibition at 1 µM [1] is on record?
The inhibition at 1 µM was 17.9%.

What about the inhibition at 1 µM [2] of the same compound?
Its inhibition at 1 µM is 22.4%.

And the inhibition at 1 µM [3]?
The inhibition at 1 µM was -5.8%.

What about the inhibition at 1 µM [4] of the same compound?
Its inhibition at 1 µM is -8.9%.

And the inhibition at 1 µM [5]?
Its inhibition at 1 µM is -4.7%.

How did the inhibition at 1 µM [1] turn out when `C=CC(=O)N1CCC[C@@H](c2c(F)cc(C(N)=O)c3[nH]c4c(c23)CC2(CC4)CC2)C1` [Compound 6-2, (S)-5-(1-acryloylpiperidin-3-yl)-6-fluoro-1,2,4,9-tetrahydrospiro[carbazole-3,1′-cyclopropane]-8-carboxamide] was run?
The inhibition at 1 µM was -3.7%.

And the inhibition at 1 µM [2]?
The inhibition at 1 µM was -33.9%.

What about the inhibition at 1 µM [3] of the same compound?
The inhibition at 1 µM was -14.8%.

And the inhibition at 1 µM [4]?
Its inhibition at 1 µM is -2%.

And the inhibition at 1 µM [5]?
The inhibition at 1 µM was 4.1%.

What does the source list for `C=CC(=O)N1CCC[C@@H](c2c(F)cc(C(N)=O)c3[nH]c4c(c23)CCC4)C1` [Compound 10-2, (S)-8-(1-acryloylpiperidin-3-yl)-7-fluoro-1,2,3,4-tetrahydrocyclo-penta[b]indole-5-carboxamide]?
inhibition at 1 µM [1]: -28.4%; inhibition at 1 µM [2]: -28%; inhibition at 1 µM [3]: 0.3%; inhibition at 1 µM [4]: 16.7%; inhibition at 1 µM [5]: -9.2%
